Consider two molecules from US10159738B2, “Organic-inorganic hybrid solid having a modified outer surface” (CENTRE NATIONAL DE LA RECHERCHE SCIENTIFIQUE-CNRS, priority 2012, dated 2018).

For data set [1] the following is noted: COOH groups; cited from earlier work.
In another data set the test system is J774 cell line. Briefly: Penetration in the J774 cell line (CLSM, ATP-BODIPY label). It is filed as cell-based, murine. Particulars: 50 μg/ml, 15 min to 24 h. As for the experimental part:
For this analysis the MIL-100s were labeled with a fluorophore: adenosine 5′-triphosphate BODIPY-FL (ATP-BODIPY, adenosine 5′-triphosphate, BODIPY® FL, Invitrogen). 1.25 mg of MIL-100 was incubated with 500 μL of an aqueous solution of ATP-BODIPY 10 nmol/ml, for 1 h, with stirring in the dark at room temperature. At the end of incubation, the nanoparticles were recovered by centrifugation at 5600×g for 10 min, and the supernatant was analyzed by spectrofluorimetry in order to quantify the level of absorption of the fluorophore. The nanoparticles were then incubated in 500 μl of water (unmodified sample) or of an aqueous solution of βCDP 1.25 mg/ml, for 1 h with stirring, at room temperature, in the dark. At the end of incubation, the nanoparticles were recovered by centrifugation at 5600×g for 10 min and resuspended in RMPI 10% FBS (fetal bovine serum) to a final concentration of 50 μg/ml. The cells of the J774 line had been cultured beforehand in 24-well plates (5×10^4 cells per well) on a sterile glass cover slip.
After 24 h of incubation in a humidified incubator at 37° C., the culture medium was replaced with 1 ml of the solutions of nanoparticles loaded with ATP-BODIPY (unmodified or surface-modified), or with free ATP-BODIPY. After various incubation times (15 min, 1 h, 4 h, 24 h), the culture medium was aspirated and the cells were fixed.

For orientation: pKa means the pH at which an ionisable group is half protonated. In the case of `O=C(O)c1cc(C(=O)O)cc(C(=O)O)c1` [trimesic acid, 1,3,5-benzenetricarboxylic acid], the pKa in data set [1] is recorded as 3.4.
Consider “adenosine 5′-triphosphate, BODIPY® FL [ATP-BODIPY]”, for which, in the data set with J774 cell line, the “internalization in the cells” value is reported as “no fluorescence was observed in the cells”.
